According to PubChem BioAssay (NCI):
“And” between values parts separate entries of the source, which are not always exact repeats. Identical values can stand only once.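 How tested: cells in 96-well plates exposed to compound for 48 hours at five concentrations. Here, GI50 denotes the concentration required for 50% inhibition of growth. TGI: total growth inhibition.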

Key:
Test in all cases: DTP human tumour cell line panel, 48 h
EKVX NSCLC = system: EKVX NSCLC
HCT-15 colon = system: HCT-15 colon
HL-60(TB) leukemia = system: HL-60(TB) leukemia
HT29 colon = system: HT29 colon
KM12 colon = system: KM12 colon
MCF7 breast = system: MCF7 breast
MDA-MB-435 = system: MDA-MB-435
MDA-N = system: MDA-N
NCI-H226 lung = system: NCI-H226 lung
NCI-H23 lung = system: NCI-H23 lung
NCI/ADR-RES ovarian = system: NCI/ADR-RES ovarian
OVCAR-3 ovarian = system: OVCAR-3 ovarian
OVCAR-4 ovarian = system: OVCAR-4 ovarian
OVCAR-8 ovarian = system: OVCAR-8 ovarian
RXF 393 renal = system: RXF 393 renal
TK-10 renal = system: TK-10 renal

| SMILES | TGI (EKVX NSCLC) | TGI (HCT-15 colon) | TGI (HL-60(TB) leukemia) | TGI (HT29 colon) | TGI (KM12 colon) | TGI (MCF7 breast) | TGI (MDA-MB-435) | TGI (MDA-N) | TGI (NCI-H226 lung) | TGI (NCI-H23 lung) | TGI (NCI/ADR-RES ovarian) | TGI (OVCAR-3 ovarian) | TGI (OVCAR-4 ovarian) | TGI (OVCAR-8 ovarian) | TGI (RXF 393 renal) | TGI (TK-10 renal) | GI50 (NCI-H226 lung) | GI50 (TK-10 renal) |
| --- | --- | --- | --- | --- | --- | --- | --- | --- | --- | --- | --- | --- | --- | --- | --- | --- | --- | --- |
| CCOC(=O)C1(C(=O)OCC)C[C@H](C)[C@](C)(O)C1 | > 100 µM | > 100 µM | > 100 µM | > 100 µM | > 100 µM | > 100 µM | > 100 µM | > 100 µM | > 100 µM | > 100 µM | > 100 µM | > 100 µM | > 100 µM | > 100 µM | > 100 µM | > 100 µM | – | – |
| Cc1cccc2c(N)c3cccc(C(=O)NCC[N+](C)(C)Cc4c([N+](=O)[O-])ncn4C)c3nc12 | > 100 µM | > 100 µM | > 44.4 µM | > 40.4 µM | > 100 µM | > 47.3 µM | > 100 µM | > 100 µM | > 100 µM | > 70.2 µM | > 100 µM | > 100 µM | > 72.5 µM | > 95.5 µM | > 100 µM | > 100 µM | – | – |
| O=c1[nH]nc(Cc2ccccc2)[nH]1 | > 100 µM | > 100 µM | > 100 µM | > 100 µM | > 100 µM | > 100 µM | > 100 µM | > 100 µM | > 100 µM | > 100 µM | > 100 µM | > 100 µM | > 100 µM | > 100 µM | > 100 µM | > 100 µM | – | – |
| O=C1C=CC=C/C1=C1\N=C(c2ccccc2OCC(=O)c2ccc(Br)cc2)SS1 | > 100 µM | > 100 µM | > 100 µM | > 100 µM | > 100 µM | > 100 µM | > 100 µM | > 100 µM | > 100 µM | > 100 µM | > 100 µM | > 100 µM | > 100 µM | > 100 µM | > 100 µM | > 100 µM | – | – |
| Cc1[nH]n(C2=NCCN2)c(=O)c1Cc1ccccc1 | > 100 µM | > 100 µM | > 100 µM | > 100 µM | > 100 µM | > 100 µM | > 100 µM | > 100 µM | > 100 µM | > 100 µM | > 100 µM | > 100 µM | > 100 µM | > 100 µM | > 100 µM | > 100 µM | – | – |
| O=C1CCCC2(c3ccccc3)Nc3ccccc3N12 (stereo not given) | > 100 µM | > 100 µM | > 100 µM | > 100 µM | > 100 µM | > 100 µM | > 100 µM | > 100 µM | > 100 µM | > 100 µM | > 100 µM | > 100 µM | > 100 µM | > 100 µM | > 100 µM | > 100 µM | – | – |
| COc1ccccc1N1CCN(CCCN2/C(=C(\O)c3ccccc3)C(=O)c3c(C)cc(C)nc3S2(=O)=O)CC1 | > 100 µM | > 100 µM | > 100 µM | > 100 µM | > 100 µM | > 100 µM | > 100 µM | > 100 µM | 87.9 µM | > 100 µM | > 100 µM | > 100 µM | > 100 µM | > 100 µM | > 100 µM | > 100 µM | – | – |
| CCc1c(C)c(C#N)c(=S)n(C2OC(COC(C)=O)C(OC(C)=O)C(OC(C)=O)C2OC(C)=O)c1C (stereo not given) | > 100 µM | > 100 µM | > 100 µM | > 100 µM | > 100 µM | > 100 µM | > 100 µM | > 100 µM | > 100 µM | > 100 µM | > 100 µM | > 100 µM | > 100 µM | > 100 µM | > 100 µM and 29.1 µM | > 100 µM and 69.4 µM | > 100 µM and 38.2 µM | 92.8 µM and 26.3 µM |
